According to patent publication US20080234132A1, “Microcin B17 Analogs And Methods For Their Preparation And Use” (priority 2004, published 2008):
≈ marks a conversion by molar mass, not a printed value. Read-outs that look alike come from different tables or passages of the source. *1 amine or outer side, *2 acyl side, *3 side chain or, on linkers, in order; H or OH if unused. Where a SMILES comes first, the peptide text is derived from it. [ ]: non-standard residue; d: D form. GlyΨ(Thz) = O=C(c1csc(CN[*:1])n1)[*:2]; X1 = O=C(c1ccc(CN[*:1])[nH]1)[*:2]; X3 = O=C(c1coc(CN[*:1])n1)[*:2]

Columns and labels:
[1] = target: DNA gyrase (MG 1655 A2B2) (Escherichia coli, UniProt P0AES4+P0AES6); assay: biochemical; design: species or system E. coli
Protocol: (§5) GyrA and GyrB were added to a solution containing 35 mM Tris.HCl (pH, 7.5), 24 mM KCl, 4 mM MgCl2, 1.8 mM spermidine, 6.5% glycerol, 0.36 mg/mL BSA, 9 μg/mL tRNA, 5 mM DTT, 2 mM ATP and 24 nM relaxed pBR322 DNA. […] The reactions were incubated at 25° C., and at each time point 30-μl aliquots were quenched with 1 μL of 10% SDS. An equal volume of chloroform/isoamyl alcohol (24:1) and a half volume of loading buffer STEB (40% sucrose/100 mM Tris.HCl, pH 7.5/100 mM EDTA/2 mg/ml bromophenol blue) were added, and the mixtures then were vortexed and centrifuged for 1 min at 13,000 rpm. The aqueous phase was loaded onto 1% agarose, TAE (40 mM Tris-acetate, 1 mM EDTA) gels and were run at either 30 V overnight in TAE (in the cold room) or 70 V for 2.5 hours. The gels were stained for about 20 min in TAE containing 1 μg/ml ethidium bromide followed by destaining in multiple washes of TAE.

Human topoisomerase IIα [2] = target: T1, Human topoisomerase IIα (Homo sapiens, UniProt P11388); assay: Human Topoisomerase IIα-mediated relaxation assay; type: biochemical; design: purchased TopoGEN Inc. (Port Orange, Fla., USA)
T1 sequence (P11388 whole entry): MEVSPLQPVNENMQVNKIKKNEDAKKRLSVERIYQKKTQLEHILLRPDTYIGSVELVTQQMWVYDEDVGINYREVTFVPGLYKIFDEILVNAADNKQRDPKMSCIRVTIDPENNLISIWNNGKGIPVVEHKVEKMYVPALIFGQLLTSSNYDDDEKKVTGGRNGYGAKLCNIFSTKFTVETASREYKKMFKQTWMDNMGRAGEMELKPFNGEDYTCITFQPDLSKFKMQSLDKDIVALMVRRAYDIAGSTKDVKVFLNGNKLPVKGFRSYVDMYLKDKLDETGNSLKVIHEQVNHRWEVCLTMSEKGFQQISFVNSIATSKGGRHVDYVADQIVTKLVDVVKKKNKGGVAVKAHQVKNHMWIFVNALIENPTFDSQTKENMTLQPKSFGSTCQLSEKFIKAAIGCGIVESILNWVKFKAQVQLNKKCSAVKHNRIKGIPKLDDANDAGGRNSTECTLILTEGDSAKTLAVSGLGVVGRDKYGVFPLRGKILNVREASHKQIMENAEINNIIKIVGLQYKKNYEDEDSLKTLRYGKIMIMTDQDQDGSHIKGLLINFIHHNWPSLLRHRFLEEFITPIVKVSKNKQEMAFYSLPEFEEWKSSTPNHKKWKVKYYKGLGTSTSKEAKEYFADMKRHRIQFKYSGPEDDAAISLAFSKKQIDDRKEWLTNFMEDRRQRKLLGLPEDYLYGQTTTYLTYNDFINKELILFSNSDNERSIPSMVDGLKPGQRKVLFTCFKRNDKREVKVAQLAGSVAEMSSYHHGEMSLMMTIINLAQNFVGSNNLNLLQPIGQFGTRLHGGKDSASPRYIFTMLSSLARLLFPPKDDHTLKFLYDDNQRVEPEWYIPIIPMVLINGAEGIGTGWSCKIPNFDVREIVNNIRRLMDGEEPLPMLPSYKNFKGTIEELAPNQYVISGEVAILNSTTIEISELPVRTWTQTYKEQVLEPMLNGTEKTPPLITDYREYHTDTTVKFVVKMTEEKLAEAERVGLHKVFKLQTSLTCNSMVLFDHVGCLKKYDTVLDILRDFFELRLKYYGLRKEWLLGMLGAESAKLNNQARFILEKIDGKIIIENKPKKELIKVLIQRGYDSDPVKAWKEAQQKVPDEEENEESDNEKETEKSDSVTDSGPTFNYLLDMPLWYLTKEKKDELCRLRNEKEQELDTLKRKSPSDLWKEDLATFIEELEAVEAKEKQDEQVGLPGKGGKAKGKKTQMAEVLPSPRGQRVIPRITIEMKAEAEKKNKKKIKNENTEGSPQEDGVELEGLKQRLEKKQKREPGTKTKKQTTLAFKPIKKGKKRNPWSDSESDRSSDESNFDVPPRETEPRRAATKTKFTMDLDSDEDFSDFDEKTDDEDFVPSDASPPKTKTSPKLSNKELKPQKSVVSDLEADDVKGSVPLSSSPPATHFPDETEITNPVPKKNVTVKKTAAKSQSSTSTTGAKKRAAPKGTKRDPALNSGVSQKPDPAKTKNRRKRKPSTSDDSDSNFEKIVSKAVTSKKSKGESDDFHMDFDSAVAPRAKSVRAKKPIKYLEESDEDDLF
Protocol: (§1) Human Topoisomerase IIα-mediated relaxation assays and decatenation assays were performed as per the manufacturer's instructions in a total of 20 μL. Relaxation assays contained Topoisomerase IIα (4.3 nM), 50 mM Tris.HCl pH 8,120 mM KCl, 10 mM MgCl2, 0.5 mM DTT, 0.5 mM ATP, 4.6 nM of supercoiled pBR322 DNA, and inhibitor where appropriate. Decatenation assays substituted the supercoiled DNA with 200 ng catenated kinetoplast DNA.
(§2) All in vitro reactions were incubated at 37° C. for 30 minutes. The DMSO concentration in each reaction was kept constant at 3.33%. Reactions were quenched with the addition of an equal volume of phenol/chloroform/isoamyl alcohol (25:24:1) and one tenth volume of loading buffer containing 40% sucrose, 100 mM Tris.HCl pH 7.5, 100 mM EDTA, 2 mg/mL bromophenol blue. The proteins were precipitated by vortexing, followed by centrifugation for 5 minutes at 16 000 g. The aqueous phase was loaded onto 1% agarose gels in Tris-acetate and were electrophoresed at 60 V for three hours in Tris-acetate buffer. The gels were stained in 1 μg/mL ethidium bromide. The gels were visualised using UV light and were documented and analysed using Syngene software.

DNA gyrase [3] = target: T2, DNA gyrase (Escherichia coli, UniProt P0AES4+P0AES6); type: biochemical, E. coli; conditions: for Cleavage (IC50 μM): Table 4; for IC50 cleavage: Table 5-C
Protocol: GyrA and GyrB were added to solutions containing 35 mM Tris.HCl (pH, 7.5), 24 mM KCl, 4 mM MgCl2, 1.8 mM spermidine, 6.5% glycerol, 0.36 mg/mL BSA, 9 μg/mL tRNA, 5 mM DTT, 2 mM ATP and 10 nM relaxed pBR322 DNA. […] The reactions were incubated at 25° C., and at each time point 30-μl aliquots were quenched with 1 μL of 10% SDS and 2 μL of 2 mg/ml proteinase K. Quenched aliquots were kept on ice until the experiment was completed, at which time they were incubated at 37° C. for half an hour. An equal volume of chloroform/isoamyl alcohol (24:1) and a half volume of loading buffer STEB (40% sucrose/100 mM Tris HCl, pH 7.5/1 mM EDTA/2 mg/ml bromophenol blue) were added, and the mixtures then were vortexed and centrifuged for 1 min at 13,000 rpm. The aqueous phase was loaded onto 1% agarose, TAE (40 mM Tris-acetate, 1 mM EDTA) gels that contained 1 μg/ml ethidium bromide and were run at either 30 V overnight in TAE containing 1 μg/ml ethidium bromide (in the cold room) or 70 V for 2.5 hours in TAE containing 1 μg/ml ethidium bromide.

Human topoisomerase I = target: T3, Human topoisomerase I (Homo sapiens, UniProt P11387); assay: Human topoisomerase I-mediated relaxation assay; type: biochemical
T3 construct: purchased TopoGEN Inc. (Port Orange, Fla., USA)
T3 sequence (P11387 1-765): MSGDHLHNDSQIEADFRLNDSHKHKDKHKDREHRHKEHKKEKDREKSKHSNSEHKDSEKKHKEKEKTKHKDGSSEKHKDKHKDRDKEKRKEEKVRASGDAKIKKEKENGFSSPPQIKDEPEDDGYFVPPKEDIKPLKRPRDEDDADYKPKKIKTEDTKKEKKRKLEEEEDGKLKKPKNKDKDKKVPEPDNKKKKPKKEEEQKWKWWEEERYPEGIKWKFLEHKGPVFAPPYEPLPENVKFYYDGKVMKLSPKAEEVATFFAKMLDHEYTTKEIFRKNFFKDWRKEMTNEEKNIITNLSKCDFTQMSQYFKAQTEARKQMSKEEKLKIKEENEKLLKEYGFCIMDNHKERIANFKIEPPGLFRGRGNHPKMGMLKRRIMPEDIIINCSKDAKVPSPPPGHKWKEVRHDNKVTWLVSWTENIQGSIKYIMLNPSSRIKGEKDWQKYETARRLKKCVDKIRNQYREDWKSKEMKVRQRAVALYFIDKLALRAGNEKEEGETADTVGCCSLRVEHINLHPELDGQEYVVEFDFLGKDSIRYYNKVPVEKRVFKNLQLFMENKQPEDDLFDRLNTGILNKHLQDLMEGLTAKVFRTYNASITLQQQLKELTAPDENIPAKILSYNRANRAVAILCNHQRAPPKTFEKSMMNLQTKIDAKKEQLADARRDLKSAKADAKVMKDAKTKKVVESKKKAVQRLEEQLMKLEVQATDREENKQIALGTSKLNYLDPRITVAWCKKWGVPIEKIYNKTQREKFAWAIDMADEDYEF
Protocol: Human topoisomerase I-mediated relaxation assays were performed as per the manufacturer's instructions. Topoisomerase I (2 nM) was added to reactions containing 10 mM of Tris.HCl, pH 7.9, 150 mM NaCl, 100 μM spermidine.HCl, 5% glycerol, 0.1% BSA, 4.6 nM of […] pBR322 DNA, and inhibitor where appropriate.
as §2

Human topoisomerase IIα [4] = target: T1, Human topoisomerase IIα; assay: Human Topoisomerase IIα decatenation assay; type: biochemical; design: purchased TopoGEN Inc. (Port Orange, Fla., USA)
Protocol: as §1, §2

DNA gyrase A2B2 = DNA gyrase A2B2 (Escherichia coli, UniProt P0AES4+P0AES6); assay: biochemical; type: biochemical, E. coli
Protocol: Relaxation assays were performed in a manner analogous to that described by Pierrat et al., 2005. Briefly, relaxation assays were performed as for the supercoiling assay but with some modifications: ATP and spermidine were omitted. Gyr A and Gyr B were added to a solutions containing 35 mM of Tris.HCl (pH=7.5), 24 mM of KCl, 4 mM of MgCl2, 1.8 mg/mL of spermidine, 6.5% of glycerol, 0.36 mg/mL of BSA, 9 μg/mL of tRNA, 5 mM of DTT, 2 mM of ATP and 24 nM of relaxed pBR322 DNA. […] The amount of DMSO was kept constant at 3.33%. The reactions were incubated at 25° C., and at each time point 30 μL aliquots were quenched with the addition of an equal volume of chloroform/isoamyl alcohol (24:1) and a half volume of loading buffer STEB (40% sucrose/100 mM Tris HCl, pH 7.5/100 mM EDTA/2 mg/mL bromophenol blue). The mixtures then were vortexed and centrifuged for 1 minute at 13,000 rpm. The aqueous phase was loaded onto 1% agarose, TAE (40 mM Tris-acetate, 1 mM EDTA) gels and were run at either 30 V overnight in TAE (in the cold room) or 70 V for 2.5 hours in TAE. The gels were stained for about 20 minutes in TAE containing 1 μg/mL ethidium bromide followed by destaining in multiple washes of TAE. The data were analysed using Syngel software.

HT-29 cells = assay: cells; type: cell-based, human; conditions: MTT, 24 hours; read-out: In vivo HT29 Cells (approximate IC50)
Protocol: (§3) Human cell cultures were initiated from frozen cell stocks (the gift of Dr J. Gavrilovic, UEA). The HT-29 line is derived from a colorectal adenocarcinoma while HeLa cells are derived from a cervical epithelial adenocarcinoma (see FIG. 35). Both human cell lines form adherent cultures and were maintained at 37° C. in T25 culture vessels as 10 mL cultures in CO2 Independent Media containing 10% foetal bovine serum (EU approved), 4 mM L-glutamine, penicillin/streptomycin (Invitrogen). A subcultivation ratio of 1:3 and 1:6 were maintained for HT-29 and HeLa lines respectively. Media was renewed every three days.
(§4) The assay to determine the effects of the heterocyclic compounds on mammalian cells is based on the cleavage of the yellow tetrazolium salt MTT to purple formazoan crystals by metabolically active cells (Roche). After incubation with MTT and solubilization, the resulting coloured solution is quantified using a scanning spectrophotometer. Each of the cell lines was trypsinised and resuspended in fresh media prior to transfer to sterile flat-bottomed microtitre plates (200 μL per well) and allowed to recover for 16 hours. Five thousand HT-29 or 7500 HeLa cells per 100 μL culture medium were incubated in the presence of the drugs in various concentrations (totalling 10 μL) for 24 hours. Cell viability was then determined by addition of MTT reagent (20 μL) in each well, as per manufacturer's instructions and incubated for a further 4 hours. Solubilization solution (100 μL) was added per well and the plates incubated overnight at 37° C. The plates were read in a spectrophotometer (scanning from 500-650 nm, signal peak at 570 nm). A representative result is illustrated in FIG. 36.

HeLa cells = assay: cells; type: cell-based, human; conditions: MTT, 24 hours; read-out: In vivo HeLa Cells (approximate IC50)
Protocol: as §3, §4

DNA gyrase [5] = target: T2, DNA gyrase; assay: biochemical; design: species or system E. coli; conditions: for IC50 SC gyrase: Table 5-C
E. coli Topoisomerase IV [6] = target: T4, E. coli Topoisomerase IV (Escherichia coli, UniProt P0AFI2+P20083); assay: biochemical; type: biochemical; design: purchased John Innes Enterprises (Norwich, UK)
T4 sequence (P20083 whole entry): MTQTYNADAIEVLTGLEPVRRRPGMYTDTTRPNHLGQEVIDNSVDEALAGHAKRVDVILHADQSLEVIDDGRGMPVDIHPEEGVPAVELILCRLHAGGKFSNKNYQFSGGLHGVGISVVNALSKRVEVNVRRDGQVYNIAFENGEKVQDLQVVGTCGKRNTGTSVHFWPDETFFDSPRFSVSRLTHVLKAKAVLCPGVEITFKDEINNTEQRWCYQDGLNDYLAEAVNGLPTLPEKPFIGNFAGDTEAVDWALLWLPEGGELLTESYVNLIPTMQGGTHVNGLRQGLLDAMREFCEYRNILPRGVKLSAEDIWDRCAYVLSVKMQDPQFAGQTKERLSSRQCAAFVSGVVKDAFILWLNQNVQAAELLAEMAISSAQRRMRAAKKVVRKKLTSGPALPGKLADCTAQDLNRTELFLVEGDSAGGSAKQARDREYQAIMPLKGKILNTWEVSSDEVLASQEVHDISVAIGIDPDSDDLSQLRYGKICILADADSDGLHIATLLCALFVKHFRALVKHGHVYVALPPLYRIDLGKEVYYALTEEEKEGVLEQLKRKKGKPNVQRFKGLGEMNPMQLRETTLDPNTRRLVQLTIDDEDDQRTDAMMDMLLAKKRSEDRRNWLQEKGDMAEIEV
T4 sequence (P0AFI2 whole entry): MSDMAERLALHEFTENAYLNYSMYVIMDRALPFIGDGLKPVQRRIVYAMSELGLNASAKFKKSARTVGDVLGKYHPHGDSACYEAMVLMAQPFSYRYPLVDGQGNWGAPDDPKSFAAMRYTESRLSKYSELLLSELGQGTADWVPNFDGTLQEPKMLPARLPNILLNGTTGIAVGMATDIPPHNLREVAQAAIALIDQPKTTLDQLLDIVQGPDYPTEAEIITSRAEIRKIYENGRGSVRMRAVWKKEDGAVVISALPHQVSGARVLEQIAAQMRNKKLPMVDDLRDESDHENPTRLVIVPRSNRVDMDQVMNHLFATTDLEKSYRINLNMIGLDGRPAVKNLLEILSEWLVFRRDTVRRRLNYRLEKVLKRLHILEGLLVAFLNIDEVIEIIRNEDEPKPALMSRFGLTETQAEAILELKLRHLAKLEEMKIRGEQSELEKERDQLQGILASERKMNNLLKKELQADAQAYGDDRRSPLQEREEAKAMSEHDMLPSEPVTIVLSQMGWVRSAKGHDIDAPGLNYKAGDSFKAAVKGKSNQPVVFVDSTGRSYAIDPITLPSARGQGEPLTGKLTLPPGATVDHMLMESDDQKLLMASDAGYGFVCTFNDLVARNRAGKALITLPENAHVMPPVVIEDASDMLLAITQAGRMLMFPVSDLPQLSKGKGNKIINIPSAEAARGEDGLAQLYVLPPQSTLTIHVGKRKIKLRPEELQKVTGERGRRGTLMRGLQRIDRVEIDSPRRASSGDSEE
Protocol: (§6) Topoisomerase IV-mediated relaxation assays and decatenation assays were performed as previously described (see Peng and Marians, 1993). […] Decatenation assays contained topoisomerase IV (4 nM), 40 mM Tris HCl pH 7.5 at 30° C., 6 mM MgCl2, 10 mM DTT, 1 mM spermidine.HCl, 100 mM potassium glutamate, 0.5 mM ATP, 0.5 mg/mL BSA, 200 ng of kinetoplast DNA, and inhibitor where appropriate.

E. coli Topoisomerase IV [7] = target: T4, E. coli Topoisomerase IV; assay: biochemical; design: purchased John Innes Enterprises (Norwich, UK)
Protocol: as §6

[8] = target: Wheatgerm topoisomerase I (Triticum aestivum, UniProt A0A3B6RK19); assay: Wheatgerm topoisomerase I-mediated relaxation assay; type: biochemical
Sequence of Wheatgerm topoisomerase I (A0A3B6RK19 entry or part of it): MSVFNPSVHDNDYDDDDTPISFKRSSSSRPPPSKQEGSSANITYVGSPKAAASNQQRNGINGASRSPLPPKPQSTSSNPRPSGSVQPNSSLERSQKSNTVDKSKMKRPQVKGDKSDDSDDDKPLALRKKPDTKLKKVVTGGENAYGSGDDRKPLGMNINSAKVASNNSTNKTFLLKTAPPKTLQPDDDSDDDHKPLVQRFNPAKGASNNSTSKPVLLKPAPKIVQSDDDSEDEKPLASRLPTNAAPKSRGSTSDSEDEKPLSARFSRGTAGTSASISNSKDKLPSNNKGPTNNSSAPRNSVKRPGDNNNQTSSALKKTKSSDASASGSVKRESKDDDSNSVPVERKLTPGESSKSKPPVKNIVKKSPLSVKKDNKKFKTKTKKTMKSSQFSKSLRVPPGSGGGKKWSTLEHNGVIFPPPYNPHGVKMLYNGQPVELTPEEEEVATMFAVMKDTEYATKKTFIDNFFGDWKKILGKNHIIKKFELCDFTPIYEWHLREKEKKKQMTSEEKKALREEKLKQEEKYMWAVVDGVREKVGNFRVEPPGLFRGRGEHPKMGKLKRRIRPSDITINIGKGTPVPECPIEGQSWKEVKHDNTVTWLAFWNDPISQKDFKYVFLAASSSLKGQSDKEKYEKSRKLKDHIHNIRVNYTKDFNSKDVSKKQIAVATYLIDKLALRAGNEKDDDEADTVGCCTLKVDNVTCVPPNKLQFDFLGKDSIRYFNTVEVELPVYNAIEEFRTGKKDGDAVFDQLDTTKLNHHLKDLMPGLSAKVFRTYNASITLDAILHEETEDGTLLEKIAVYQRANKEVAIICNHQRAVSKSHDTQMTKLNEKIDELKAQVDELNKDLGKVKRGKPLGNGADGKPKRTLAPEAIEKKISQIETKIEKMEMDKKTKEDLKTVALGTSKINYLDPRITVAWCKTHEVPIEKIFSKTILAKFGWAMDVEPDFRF
Protocol: Wheatgerm topoisomerase I-mediated relaxation assays were performed as per the manufacturer's instructions. Topoisomerase I (2 nM) was added to reactions containing 50 mM Tris. HCl pH 7.5, 50 mM NaCl, 0.1 mM EDTA, 1 mM DTT, 20% glycerol, 4.6 nM of […] pBR322 DNA, and inhibitor where appropriate.
as §2

[9] = target: DNA gyrase MG1655 wild type A2B2 (Escherichia coli, UniProt P0AES4+P0AES6); assay: biochemical; design: species or system E. coli; conditions: for ATPase % inhibition at saturation: Table 4
Protocol: ATP hydrolysis by DNA gyrase was linked to the oxidation of NADH using a pyruvate Kinase (PK)/lactate dehydrogenase (LDH) coupled enzyme assay and measured at 340 nm on a Spectramax Plus Microplate. […] Each 100 μL reaction contained 50 mM Tris.HCl (pH 7.5), 24 mM KCl, 5 mM MgCl2, 6.5% (w/w) glycerol, 4 mM dithiotreitol, 0.4 mM NADH, 0.8 mM phosphorenol-pyruvate, 1% (w/w) PK/LDH mixture (Sigma), 51 nM-153 nM gyrase enzyme and the drug tested at varying concentrations. DMSO was kept constant at 2%. The reactions were measured in the presence or absence of linear DNA pBR322 at fixed concentration of 8.4 nM. Reactions were initiated by the addition of 10 mM Mg.ATP and measured at 25° C. over 1.5 hours.
DNA-dependent ATPase reactions were tested with the wild type enzyme A2B2 and the W751R mutant enzyme. In these DNA-dependent ATPase assays, the concentration of wild type A2B2 is 51 nM, the concentration of W751R mutant enzyme is 106 nM.
Experimental data were fitted and treated with the following equation:
where L represents the inhibitor concentration, v represents the rate of the ATPase reaction, and v0 represents the rate in absence of inhibitor. The IC50 is deduced from the equation 2:

DNA gyrase W751R A2B2 = DNA gyrase W751R A2B2 (Escherichia coli, UniProt P0AES4+P0AES6, W751R); assay: Supercoiling in vitro assay, W751R mutant enzyme; type: biochemical, E. coli
Protocol: as §5

[10] = target: DNA gyrase W751R mutant A2B2 (Escherichia coli, UniProt P0AES4+P0AES6, W751R); type: biochemical, E. coli
Protocol: ATP hydrolysis by DNA gyrase was linked to the oxidation of NADH using a pyruvate Kinase (PK)/lactate dehydrogenase (LDH) coupled enzyme assay and measured at 340 nm on a Spectramax Plus Microplate. […] DMSO was kept constant at 2%.
DNA-dependent ATPase reactions were tested with the wild type enzyme A2B2 and the W751R mutant enzyme.

[11] = system: A. thaliana ecotype Columbia seeds; assay: Seed germination of A. thaliana; type: in vivo, Arabidopsis thaliana; conditions: 36 hours; 100 μM Peptide 1; 5 μM CFX
Protocol: The microcin derivatives were tested for efficacy in planta against Arabidopsis thaliana ecotype Columbia according to known methods (see Wall et al., 2004).

[12] = Topo IIα Human, R (relaxation reaction) IC50
[13] = Supercoiling (IC50 μM) MG 1655 A2B2, Table 4

Protocol for pBR322 DNA: Other compounds like Ethidium Bromide (EtBr), MccB17 and Ciprofloxacin (CFX) were also tested as controls. In this assay, negatively supercoiled pBR322 was relaxed by topoisomerase I in the presence or the absence of the putative DNA intercalative compound. […] Sample reactions were performed in the same buffer used for the DNA relaxation of DNA gyrase (Pierrat & Maxwell, 2003). […] In one set of reactions, negatively supercoiled pBR322 DNA was relaxed at 37° C. for 30 minutes, then intercalative agent was added, i.e., the substrate of the assay was relaxed. In a second set of reactions, the intercalative agent was incubated with the DNA in reaction buffer at 37° C. for 15 minutes prior to the addition of topoisomerase I, i.e., the substrate of the assay was negatively supercoiled. […] Samples were incubated for 60 minutes at 37° C., followed by treatment with 1% SDS and 0.3 mg/mL proteinase K at 37° C. for 30 minutes. Reactions were terminated and samples were prepared for agarose gel electrophoresis as previously described (Heddle et al., 2001). Each reaction product was separated on 1% agarose gel, followed by staining in 1 μg/mL ethidium bromide.

Row | Compound | IC50 (Human topoisomerase IIα [2]; [12]) [µM] | Cleavage (IC50 μM) (DNA gyrase [3]) | IC50 (Human topoisomerase I) [µM] | IC50 (Human topoisomerase IIα [4]) [µM] | IC50 (DNA gyrase A2B2) [µM] | IC50 (HT-29 cells) [µM] | IC50 (HeLa cells) [µM] | IC50 (DNA gyrase [5]) [µM] | IC50 (E. coli Topoisomerase IV [7]) [µM] | Topo I Human IC50 (Human topoisomerase I) | Topo IIα Human, D (decatenation reaction) IC50 (Human topoisomerase IIα [4]) | Topo IV, D (decatenation reaction) IC50 (E. coli Topoisomerase IV [6]) | further results
1 | CC(NC(=O)CNC(=O)CNC(=O)c1coc(CNC(=O)C(C)NC(=O)CNC(=O)C(N)CCC(N)=O)n1)C(=O)O (stereo not drawn) [Peptide 4] (H-QGA[X3]GGA-OH; configuration not given here) | 225 | inactive | – | – | – | – | – | – | – | – | – | – | Supercoiling (IC50 μM) MG 1655 A2B2 ([1]; Table 4): Slow
2 | C[C@H](NC(=O)CNC(=O)CNC(=O)c1csc(CNC(=O)[C@H](C)NC(=O)CNC(=O)[C@@H](N)CCC(N)=O)n1)C(=O)O [Peptide 5] (H-QGA[GlyΨ(Thz)]GGA-OH) | 7 | – | 25 | < 2.5 | 40 | ~15 | ~75 | 25 | – | – | – | – | IC50 cleavage (DNA gyrase [3]): No
3 | C[C@H](NC(=O)CNC(=O)CNC(=O)c1coc(CNC(=O)[C@H](C)NC(=O)CNC(=O)[C@@H](N)CCC(N)=O)n1)C(=O)O [Peptide 4] (H-QGA[X3]GGA-OH) | 225 | – | > 300 | < 50 | – | > 75 | > 75 | 400 | > 300 | – | – | – | IC50 cleavage (DNA gyrase [3]): No; IC50 (E. coli Topoisomerase IV [6]): 175 µM
4 | CC(C)(C)OC(=O)NCc1nc(-c2nc(C(=O)O)co2)cs1 [#8] | – | – | – | – | – | – | – | – | – | – | – | – | IC50 SC gyrase (DNA gyrase [5]): Inactive
5 | CC(C)(C)OC(=O)NCc1nc(C(=O)O)cs1 [Peptide 5] | 15 | – | 40 | < 5 | – | ~15 | ~75 | 75 | > 75 | – | – | – | IC50 (E. coli Topoisomerase IV [6]): 20 µM
6 | CC(C)(C)OC(=O)NCc1nc(C(=O)O)cs1 [#5] | – | – | – | – | – | – | – | – | – | only inhibited human topoisomerase I | exquisitely sensitive | exquisitely sensitive | IC50 (Human topoisomerase IIα [2]; read-out: Topo IIα Human, R (relaxation reaction) IC50): < 20 µM
7 | CC(NC(=O)CNC(=O)CNC(=O)c1csc(CNC(=O)C(C)NC(=O)CNC(=O)C(N)CCC(N)=O)n1)C(=O)O (stereo not drawn) [Peptide 5] (H-QGA[GlyΨ(Thz)]GGA-OH; configuration not given here) | < 20 | inactive | – | – | 15 | – | – | – | < 10 | inhibited | exquisitely sensitive | exquisitely sensitive | Topo I Wheatgerm IC50 [8]: inhibited; IC50 [1, 13]: 15 µM; IC50 [9]: 15 µM; ATPase % inhibition at saturation [9]: 40%
8 | CC(NC(=O)CNC(=O)CNC(=O)c1ccc(CNC(=O)C(C)NC(=O)CNC(=O)C(N)CCC(N)=O)[nH]1)C(=O)O (stereo not drawn) [Peptide 1] (H-QGA[X1]GGA-OH; configuration not given here) | < 20 | inactive | – | – | 68 | – | – | – | < 10 | inhibited | exquisitely sensitive | exquisitely sensitive | Topo I Wheatgerm IC50 [8]: inhibited; IC50 [1, 13]: 68 µM; IC50 ([1]; inhibition of supercoiling IC50, [A2B2] 13.2 nM, incubated up to 4 h): < 75 µM; times more soluble than MccB17 (Solubility): at least 20 times; solubility (Solubility; water with 2% DMSO): 1000 µM (≈ 582 µg/mL); IC50 [9]: 37 µM; ATPase % inhibition at saturation [9]: 15%; IC50 (DNA gyrase W751R A2B2): > 200 µM
9 | CC(C)(C)OC(=O)NCc1nc(-c2nc(C(=O)O)cs2)co1 [#7] | – | – | – | – | – | – | – | – | – | – | – | – | IC50 SC gyrase (DNA gyrase [5]): Inactive
10 | O=C(O)c1cn(C2CC2)c2cc(N3CCNCC3)c(F)cc2c1=O [Ciprofloxacin, reference compound] | – | – | – | – | – | – | – | – | – | – | – | – | concentration producing a weak intercalative property (pBR322 DNA): 50 µM; inhibition of DNA-independent ATPase of W751R mutant enzyme ([10]; FIG. 18, no DNA): does not inhibit; inhibition of DNA-dependent ATPase of W751R mutant A2B2 ([10]; W751R enzyme 106 nM, + DNA): slow down; germination of A. thaliana ecotype Columbia seeds [11]: growth is inhibited immediately after germination; inhibition of DNA-dependent ATPase of wild type enzyme ([9]; FIG. 18, 0.5 and 1.0 μM): slow down; inhibition of DNA-independent ATPase of wild type enzyme ([9]; FIG. 18, no DNA): does not inhibit
